Where a SMILES comes first, the peptide text is derived from it. [ ]: non-standard residue; d: D form. ξ: configuration not given here. Dab = NCC[C@H](N)C(=O)O; Dap = NC[C@H](N)C(=O)O; ξDab = NCCC(N)C(=O)O; ξDap = NCC(N)C(=O)O
Experiments:
Hairpin ribozyme RNA [1] = test system: Hairpin ribozyme RNA
Description: Cleavage rate against hairpin ribozyme at 5 mM with 0.5 uM magnesium ions

Hairpin ribozyme RNA [2] = test system: Hairpin ribozyme RNA; remark: listed apart in the source
Description: Cleavage rate against hairpin ribozyme at 2 mM, in presence of 0.5 uM magnesium ions

Row | SMILES | K obs (Hairpin ribozyme RNA [1]) | K obs (Hairpin ribozyme RNA [2])
1 | NCC[C@@H](N)C(=O)O | 0.027 | 0.023
2 | NCCC(NC(=O)[C@@H](N)CN)C(=O)O (some centres not stated) (H-[Dap]-[ξDab]-OH) | – | 0.026
3 | NC[C@@H](N)C(=O)O | 0.022 | 0.02
4 | NCCC(=O)O | 0.03 | 0.018
5 | NCCCC(=O)O | 0.023 | 0.0088
6 | N[C@H](Cc1c[nH]cn1)C(=O)O | 0.026 | 0.0085
7 | NCCCC[C@@H](N)C(=O)O | 0.026 | 0.004
8 | NC[C@H](N)C(=O)O | 0.045 | 0.061
9 | NCCCC[C@H](N)C(=O)O | 0.013 | 0.016
10 | NCC(=O)O | 0.03 | 0.017
11 | NCCC[C@@H](N)C(=O)O | 0.034 | 0.0086
12 | NCC[C@H](N)C(=O)NC(CN)C(=O)O (some centres not stated) (H-[Dab]-[ξDap]-OH) | – | 0.02
13 | N=C(N)NCCC[C@H](N)C(=O)O | 0.034 | 0.016
14 | NCC[C@H](N)C(=O)O | 0.08 | 0.085
15 | N[C@@H](Cc1c[nH]cn1)C(=O)O | 0.013 | 0.037
16 | NCCC(NC(=O)[C@@H](N)CCN)C(=O)O (some centres not stated) (H-[Dab]-[ξDab]-OH) | – | 0.021
17 | NCCCNCCCCNCCCN | 0.065 | 0.073
18 | NCC(NC(=O)[C@@H](N)CN)C(=O)O (some centres not stated) (H-[Dap]-[ξDap]-OH) | – | 0.024
